Laboratory results from patent US11976054B2, “Amide derivative and preparation method therefore and use thereof in medicine” (Chengdu Baiyu Pharmaceutical Co., Ltd., priority 2019, dated 2024).

Key:
[1] = test system: Human monocyte cell line THP-1; experiment: Detection of THP-1 cell pyroptosis (Caspase-Glo 1 Inflammasome Assay); format: cell-based; conditions: 20 nM PMA 48 h, 1 μg/mL LPS, compound 3 h
In short: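 Differentiated with 20 nM PMA for 48 h (50,000 cells/well), then given serum-free medium with 1 μg/mL LPS and compound in a 10-point, 3-fold series from 10 μM for 3 h at 37 °C. Caspase-1 activity read with Caspase-Glo 1 Inflammasome kit; IC50 calculated.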

[2] = Pharmacokinetic analysis of compounds in rats; format: in vivo, SD rats; conditions: for F %: po 10 mg/kg vs iv 1 mg/kg
Protocol: Healthy adult SD rats weighing 180-220 g were fasted (free access to water) overnight and divided into tail vein administration group and intragastric administration group. The tail vein administration group was subjected to blood collection of 0.1 mL from orbital venous plexus before the administration and 5 min, 15 min, 0.5 h, 1 h, 2 h, 4 h, 8 h, 12 h and 24 h after the administration, and plasma was separated out by centrifugation at 4° C. for 5 min and stored at −20° C. for test. The intragastric administration group was subjected to blood collection of 0.1 mL from orbital venous plexus before the administration and 5 min, 15 min, 0.5 h, 1 h, 2 h, 4 h, 8 h, 12 h and 24 h after the administration, and the subsequent treatment procedures were the same as those of the tail vein injection group. The concentration of parent drug in the plasma was determined by LC-MS/MS.

[3] = test system: IL-1β release in human PBMCs; experiment: Assay of IL-1β release in human PBMCs; format: cell-based; conditions: 10 ng/mL LPS 3 h, compound 0.5 h, 5 mM ATP 1 h, ELISA
Protocol: 5 mL of human venous whole blood from a healthy donor was placed in a Li-heparin tube. PBMCs were isolated and incubated in a culture medium containing 10 ng/mL LPS at 37° C./5% CO2 for 3 h. Cells were plated in a 96-well plate at 50 μL per well. 25 μL of compound or solvent control was added to each well and 3-fold diluted in gradient from a maximum concentration of 10 μM, and 8 gradient concentrations were set. The mixtures were incubated for 0.5 h. 25 μL of ATP at a final concentration of 5 mM was added to each well, and the resulting mixtures were incubated for 1 h. After the incubation, the mixtures were centrifuged at 1500 rpm for 20 min, and the supernatant was collected to detect the expression level of […] by ELISA (BD, Human IL-1β ELISA Set II, Cat #557953). IC50 was calculated using GraphPad Prism7.0 software. The results are shown in Table 2, which indicate that: the compounds disclosed herein down-regulate release of mature IL-1β by inhibiting the activity of Caspase-1, and the IC50 is <50 nM.

[4] = test system: Rat dorsal air pouch models; experiment: Rat dorsal air pouch pharmacodynamic models (sodium urate); format: in vivo, SD rats; conditions: air pouch exudate 5 h after 1% sodium urate; for IL-1β concentration in exudate: ELISA
Protocol: Healthy adult male SD rats weighing 180-220 g were purchased, and rat dorsal air pouch models were constructed after adaptive feeding of the rats. On day 1, day 4 and day 7 of modeling, 20 mL of sterile air was injected subcutaneously into the back of rats by means of injection needles, and the air pouch was maintained at an inflated state. On day 8, 50 mg/kg compound or vehicle control was administered intragastrically. 5 mL of 1% sodium urate suspension was injected into the dorsal air pouch, and air pouch exudate was collected 5 h later. 40 μL of the exudate was taken for leukocyte counting. The remaining exudate was centrifuged at 1500 rpm for 20 min, and the supernatant was collected to detect the expression level of IL-1β by ELISA (BD, Human IL-1β ELISA Set II, Cat #557953).

[5] = Homo sapiens, THP-1, THP-1 pyroptosis
[6] = SD rats, iv (tail vein), 1 mg/kg, plasma
[7] = SD rats, po (intragastric), 10 mg/kg, plasma

C[C@@H](c1cc(F)c2c(c1NC(=O)N[S@@](=N)(=O)c1cc(C(C)(C)O)co1)CCC2)C1CC1 (single isomer, unassigned) [Compound 42-2]
IC50 [1, 5]: ≤ 100 nM | AUC ([2]; SD, rat, in vivo, iv, 1 mg/kg): 1980 ng·h/mL | Vd ([2]; SD, rat, in vivo, iv, 1 mg/kg): 0.503 L/kg | clearance ([2]; SD, rat, in vivo, iv, 1 mg/kg): 8.6 mL/min/kg | half-life ([2]; SD, rat, in vivo, iv, 1 mg/kg): 0.79 h | bioavailability ([2]; SD, rat, in vivo, po): 87.2% | AUC ([2]; SD, rat, in vivo, po, 10 mg/kg): 17300 ng·h/mL | Cmax ([2]; SD, rat, in vivo, po, 10 mg/kg): 8500 ng/mL | half-life ([2]; SD, rat, in vivo, po, 10 mg/kg): 2.1 h | IC50 ([3]; PBMC): 3.2 nM

CC(c1ccc2c(c1NC(=O)NS(=N)(=O)c1cc(C(C)(C)O)co1)CCC2)C1CC1 (racemic) [Compound 8-1, (RS, SC)- and (SS, SC)-N-((5-(1-cyclopropylethyl)-2,3-dihydro-1H-inden-4-yl)carbamoyl)-4-(2-hydroxypropan-2-yl)furan-2-sulfonimidamide]
IC50 ([1]; THP-1 pyroptosis): ≤ 100 nM | AUC [2, 6]: 2557 ng·h/mL | Cl [2, 6]: 6.8 mL/min/kg | Vss [2, 6]: 0.296 L/kg | t1/2 [2, 6]: 0.74 h | F % ([2]; SD rats): 56.2% | AUC [2, 7]: 14367 ng·h/mL | Cmax [2, 7]: 6397 ng/mL | t1/2 [2, 7]: 2.4 h | Leukocyte concentration (10^6/mL) ([4]; 50 mg/kg intragastric): 2.25 ± 0.5 10^6/mL | IL-1β concentration in exudate ([4]; 50 mg/kg intragastric): 1522.5 ± 313.2 pg/mL | IC50 [3]: 26.3 nM

Cc1oc(S(=N)(=O)NC(=O)Nc2c(CC3CCC3)ccc3c2CCC3)cc1C(C)(C)O (centres unmarked) [Compound 21-1, RS- and SS-N-((5-(cyclobutylmethyl)-2,3-dihydro-1H-inden-4-yl)carbamoyl)-4-(2-hydroxypropan-2-yl)-5-methylfuran-2-sulfonimidamide]
IC50 ([1]; THP-1 pyroptosis): ≤ 100 nM | AUC ([2]; rat, in vivo, iv, 1 mg/kg): 2404 ng·h/mL | Cl ([2]; rat, in vivo, iv, 1 mg/kg): 7.4 mL/min/kg | Vss ([2]; rat, in vivo, iv, 1 mg/kg): 0.371 L/kg | t1/2 ([2]; rat, in vivo, iv, 1 mg/kg): 0.65 h | AUC ([2]; rat, in vivo, po, 10 mg/kg): 37246 ng·h/mL | Cmax ([2]; rat, in vivo, po, 10 mg/kg): 12717 ng/mL | t1/2 ([2]; rat, in vivo, po, 10 mg/kg): 2.3 h | IC50 [3]: 26.2 nM

CC(C)(O)c1coc(S(=N)(=O)NC(=O)Nc2c(CC3CCC3)ccc3c2CCC3)c1 (single isomer, unassigned) [Compound 18-2, RS- and SS-N-((5-(cyclobutylmethyl)-2,3-dihydro-1H-inden-4-yl)carbamoyl)-4-(2-hydroxypropan-2-yl)furan-2-sulfonimidamide]
IC50 ([1]; THP-1 pyroptosis): ≤ 100 nM | AUC ([2]; rat, in vivo, iv, 1 mg/kg): 3691 ng·h/mL | Cl ([2]; rat, in vivo, iv, 1 mg/kg): 5.6 mL/min/kg | Vss ([2]; rat, in vivo, iv, 1 mg/kg): 0.346 L/kg | t1/2 ([2]; rat, in vivo, iv, 1 mg/kg): 0.86 h | AUC ([2]; rat, in vivo, po, 10 mg/kg): 28427 ng·h/mL | Cmax ([2]; rat, in vivo, po, 10 mg/kg): 16600 ng/mL | t1/2 ([2]; rat, in vivo, po, 10 mg/kg): 3.1 h | Leukocyte concentration (10^6/mL) ([4]; 50 mg/kg intragastric): 1.72 ± 0.3 10^6/mL | IL-1β concentration in exudate ([4]; 50 mg/kg intragastric): 795.5 ± 232.8 pg/mL | IC50 [3]: 11.2 nM

C[C@H](c1cc(F)c2c(c1NC(=O)N[S@@](=N)(=O)c1cc(C(C)(C)O)co1)CCC2)C1CC1 (single isomer, unassigned) [Compound 44-2]
IC50 [1, 5]: ≤ 100 nM | AUC ([2]; SD, rat, in vivo, iv, 1 mg/kg): 1620 ng·h/mL | Vd ([2]; SD, rat, in vivo, iv, 1 mg/kg): 0.537 L/kg | clearance ([2]; SD, rat, in vivo, iv, 1 mg/kg): 10.5 mL/min/kg | half-life ([2]; SD, rat, in vivo, iv, 1 mg/kg): 0.93 h | bioavailability ([2]; SD, rat, in vivo, po): 89.1% | AUC ([2]; SD, rat, in vivo, po, 10 mg/kg): 14500 ng·h/mL | Cmax ([2]; SD, rat, in vivo, po, 10 mg/kg): 6380 ng/mL | half-life ([2]; SD, rat, in vivo, po, 10 mg/kg): 2.4 h | IC50 ([3]; PBMC): 16.3 nM

C[C@@H](c1ccc2c(c1NC(=O)NS(=N)(=O)c1cc(C(C)(C)O)co1)CCC2)C1CC1 (mixture of isomers) [Compound 6-1, (RS, RC)- and (SS, RC)-N-((5-(-1-cyclopropylethyl)-2,3-dihydro-1H-inden-4-yl)carbamoyl)-4-(2-hydroxypropan-2-yl)furan-2-sulfonimidamide]
IC50 ([1]; THP-1 pyroptosis): ≤ 100 nM | AUC [2, 6]: 6312 ng·h/mL | Cl [2, 6]: 2.7 mL/min/kg | Vss [2, 6]: 0.26 L/kg | t1/2 [2, 6]: 1.6 h | F % ([2]; SD rats): 65.8% | AUC [2, 7]: 41521 ng·h/mL | Cmax [2, 7]: 13900 ng/mL | t1/2 [2, 7]: 2.5 h | Leukocyte concentration (10^6/mL) ([4]; 50 mg/kg intragastric): 1.99 ± 0.4 10^6/mL | IL-1β concentration in exudate ([4]; 50 mg/kg intragastric): 895.7 ± 266.4 pg/mL

COc1cc2c(c(OC)c1OC)-c1ccc(OC)c(=O)cc1[C@@H](NC(C)=O)CC2 [Colchicine, reference compound]
Leukocyte concentration (10^6/mL) ([4]; 30 mg/kg): 3.40 ± 0.7 10^6/mL | IL-1β concentration in exudate ([4]; 30 mg/kg): 1190.9 ± 463.6 pg/mL
